Data as given in patent US11292807B2 (OCEANS LTD., priority 2015, dated 2022).
Like-named read-outs stand apart in the source and are kept apart here.

Tests used:
MDA-MB [1] = conditions: MDA-MB
MDA-MB [2] = experiment: cells; conditions: Homo sapiens, read-out: Average cell viability, MDA-MB
PC3 = experiment: CIMA assay, cell viability, PC3; conditions: for Fold change in viability AVG: PC3
[3] = tested on: U373 (glioblastoma-astrocytoma); experiment: CIMA assay, cell viability, U373; conditions: for Fold change in viability AVG: U373
[4] = tested on: SKOV3 (ovarian adenocarcinoma); experiment: CIMA assay, cell viability, SKOV3; conditions: for Fold change in viability AVG: SKOV
[5] = tested on: THP-1 (acute monocytic leukemia); experiment: CIMA assay, cell viability, THP-1; conditions: for Fold change in viability AVG: THP-1
[6] = CIMA assay, cell viability, CCD1079SK; conditions: human, Average cell viability, CCD
[7] = tested on: CCD1079SK (fibroblast, noncancerous but proliferating); experiment: CIMA assay, cell viability, CCD1079SK; conditions: CCD
A549 (lung carcinoma) = experiment: CIMA assay (colorimetric indicator of metabolic activity), cell viability, A549; conditions: for Fold change in viability AVG: A549
Description: Stock solutions of the extracts were prepared in dimethylsulfoxide (DMSO) at 10 mg/mL and stored in 200 μl aliquots at −20° C. until analysis. This preparation ensured that the DMSO delivered to cells in culture never exceeded 1%.
Prepared extracts were assessed following chronic exposure conditions in which cells were seeded at 2×10^3 cells/well (96 well-plate) and incubated with test compounds for 72 h. Each compound was evaluated over a range of concentrations (0, 10, 25, 50 or 100 μg/ml). Cell proliferation was initially assessed using a standard colorimetric indicator of metabolic activity (CIMA) assay. In this assay, tetrazole reduction was evaluated as a measure of metabolic function that evaluates mitochondrial activity to determine the extent of cell proliferation within a culture. This assay is based on the reduction of yellow tetrazolium salt to purple formazan by mitochondrial reductases enzyme in viable cells, resulting in a color changed that confers a change in absorbance.

**Q.** Which results are given for `CC/C=C\C/C=C\C/C=C\C/C=C\C/C=C\CCCC(=O)OCC(O)COC1OC(CO)C(O)C(O)C1O` (stereo not shown) [Compound 13, lyso-MGDG C20:5]?
**A.** MDA-MB AVG (MDA-MB [1]; sample at 1 ug/mL): 1.11; MDA-MB AVG (MDA-MB [1]; sample at 10 ug/mL): 1.14; MDA-MB AVG (MDA-MB [1]; sample at 50 ug/mL): 0.33; MDA-MB AVG (MDA-MB [1]; sample at 100 ug/mL): 0.28; Fold change in viability AVG (MDA-MB [1]; 1 ug/mL): 1.11; Fold change in viability AVG (MDA-MB [1]; 10 ug/mL): 1.14; Fold change in viability AVG (MDA-MB [1]; 50 ug/mL): 0.33; Fold change in viability AVG (MDA-MB [1]; 100 ug/mL): 0.28; viability at 1 µg/mL (MDA-MB [2]; 1 ug/mL): 102%; viability at 10 µg/mL (MDA-MB [2]; 10 ug/mL): 105%; viability at 50 µg/mL (MDA-MB [2]; 50 ug/mL): 30%; viability at 100 µg/mL (MDA-MB [2]; 100 ug/mL): 25%; viability at 1 µg/mL (PC3; Homo sapiens, PC-3, read-out: Average cell viability, PC3, 1 ug/mL): 104%; viability at 10 µg/mL (PC3; Homo sapiens, PC-3, read-out: Average cell viability, PC3, 10 ug/mL): 97%; viability at 50 µg/mL (PC3; Homo sapiens, PC-3, read-out: Average cell viability, PC3, 50 ug/mL): 16%; viability at 100 µg/mL (PC3; Homo sapiens, PC-3, read-out: Average cell viability, PC3, 100 ug/mL): 12%; PC3 AVG (PC3; PC3, sample at 1 ug/mL): 1.08; PC3 AVG (PC3; PC3, sample at 10 ug/mL): 1.01; PC3 AVG (PC3; PC3, sample at 50 ug/mL): 0.16; PC3 AVG (PC3; PC3, sample at 100 ug/mL): 0.12; Fold change in viability AVG (PC3; 1 ug/mL): 1.08; Fold change in viability AVG (PC3; 10 ug/mL): 1.01; Fold change in viability AVG (PC3; 50 ug/mL): 0.16; Fold change in viability AVG (PC3; 100 ug/mL): 0.12; viability at 1 µg/mL ([3]; Homo sapiens, U373 MG, read-out: Average cell viability, U373, 1 ug/mL): 111%; viability at 10 µg/mL ([3]; Homo sapiens, U373 MG, read-out: Average cell viability, U373, 10 ug/mL): 100%; viability at 50 µg/mL ([3]; Homo sapiens, U373 MG, read-out: Average cell viability, U373, 50 ug/mL): 7%; viability at 100 µg/mL ([3]; Homo sapiens, U373 MG, read-out: Average cell viability, U373, 100 ug/mL): 6%; U373 AVG ([3]; U373, sample at 1 ug/mL): 1.13; U373 AVG ([3]; U373, sample at 10 ug/mL): 1.02; U373 AVG ([3]; U373, sample at 50 ug/mL): 0.07; U373 AVG ([3]; U373, sample at 100 ug/mL): 0.06; Fold change in viability AVG ([3]; 1 ug/mL): 1.13; Fold change in viability AVG ([3]; 10 ug/mL): 1.02; Fold change in viability AVG ([3]; 50 ug/mL): 0.07; Fold change in viability AVG ([3]; 100 ug/mL): 0.06; viability at 1 µg/mL ([4]; Homo sapiens, SK-OV-3, read-out: Average cell viability, SKOV, 1 ug/mL): 125%; viability at 10 µg/mL ([4]; Homo sapiens, SK-OV-3, read-out: Average cell viability, SKOV, 10 ug/mL): 105%; viability at 50 µg/mL ([4]; Homo sapiens, SK-OV-3, read-out: Average cell viability, SKOV, 50 ug/mL): 78%; viability at 100 µg/mL ([4]; Homo sapiens, SK-OV-3, read-out: Average cell viability, SKOV, 100 ug/mL): 34%; Fold change in viability AVG ([4]; 1 ug/mL): 1.34; Fold change in viability AVG ([4]; 10 ug/mL): 1.13; Fold change in viability AVG ([4]; 50 ug/mL): 0.84; Fold change in viability AVG ([4]; 100 ug/mL): 0.37; viability at 1 µg/mL ([5]; Homo sapiens, THP-1, read-out: Average cell viability, THP-1, 1 ug/mL): 104%; viability at 10 µg/mL ([5]; Homo sapiens, THP-1, read-out: Average cell viability, THP-1, 10 ug/mL): 101%; viability at 50 µg/mL ([5]; Homo sapiens, THP-1, read-out: Average cell viability, THP-1, 50 ug/mL): 40%; viability at 100 µg/mL ([5]; Homo sapiens, THP-1, read-out: Average cell viability, THP-1, 100 ug/mL): 27%; THP-1 AVG ([5]; THP-1, sample at 1 ug/mL): 1.19; THP-1 AVG ([5]; THP-1, sample at 10 ug/mL): 1.14; THP-1 AVG ([5]; THP-1, sample at 50 ug/mL): 0.46; THP-1 AVG ([5]; THP-1, sample at 100 ug/mL): 0.31; Fold change in viability AVG ([5]; 1 ug/mL): 1.19; Fold change in viability AVG ([5]; 10 ug/mL): 1.14; Fold change in viability AVG ([5]; 50 ug/mL): 0.46; Fold change in viability AVG ([5]; 100 ug/mL): 0.31; viability at 72 h, 1 ug/mL ([6]; CCD1079SK fibroblast cells (noncancerous, proliferating), 1 ug/mL): 103%; viability at 72 h, 10 ug/mL ([6]; CCD1079SK fibroblasts (noncancerous, proliferating), 10 ug/mL): 99%; viability at 72 h, 50 ug/mL ([6]; CCD1079SK fibroblasts (noncancerous, proliferating), 50 ug/mL): 22%; viability at 72 h, 100 ug/mL ([6]; CCD1079SK fibroblasts (noncancerous, proliferating), 100 ug/mL): 14%; Fold change in viability AVG ([7]; 1 ug/mL): 1.13; Fold change in viability AVG ([7]; 10 ug/mL): 1.09; Fold change in viability AVG ([7]; 50 ug/mL): 0.24; Fold change in viability AVG ([7]; 100 ug/mL): 0.15; A549 AVG (A549 (lung carcinoma); A549, sample at 1 ug/mL): 0.67; A549 AVG (A549 (lung carcinoma); A549, sample at 10 ug/mL): 0.64; A549 AVG (A549 (lung carcinoma); A549, sample at 50 ug/mL): 0.67; A549 AVG (A549 (lung carcinoma); A549, sample at 100 ug/mL): 0.38; Fold change in viability AVG (A549 (lung carcinoma); 1 ug/mL): 0.67; Fold change in viability AVG (A549 (lung carcinoma); 10 ug/mL): 0.64; Fold change in viability AVG (A549 (lung carcinoma); 50 ug/mL): 0.67; Fold change in viability AVG (A549 (lung carcinoma); 100 ug/mL): 0.38; viability at 1 µg/mL (A549 (lung carcinoma); Homo sapiens, A549, read-out: Average cell viability, A549, 1 ug/mL): 57%; viability at 10 µg/mL (A549 (lung carcinoma); Homo sapiens, A549, read-out: Average cell viability, A549, 10 ug/mL): 55%; viability at 50 µg/mL (A549 (lung carcinoma); Homo sapiens, A549, read-out: Average cell viability, A549, 50 ug/mL): 57%; viability at 100 µg/mL (A549 (lung carcinoma); Homo sapiens, A549, read-out: Average cell viability, A549, 100 ug/mL): 32%
